Our source for the EC50 values is patent US20230365553A1, “COMPOUNDS AND COMPOSITIONS FOR TREATING CONDITIONS ASSOCIATED WITH STING ACTIVITY” (IFM Due, Inc., priority 2020, published 2023).

The structures appear in SMILES notation.

T1 sequence (Q86WV6 whole entry R71H/G230A/H232R/R293Q): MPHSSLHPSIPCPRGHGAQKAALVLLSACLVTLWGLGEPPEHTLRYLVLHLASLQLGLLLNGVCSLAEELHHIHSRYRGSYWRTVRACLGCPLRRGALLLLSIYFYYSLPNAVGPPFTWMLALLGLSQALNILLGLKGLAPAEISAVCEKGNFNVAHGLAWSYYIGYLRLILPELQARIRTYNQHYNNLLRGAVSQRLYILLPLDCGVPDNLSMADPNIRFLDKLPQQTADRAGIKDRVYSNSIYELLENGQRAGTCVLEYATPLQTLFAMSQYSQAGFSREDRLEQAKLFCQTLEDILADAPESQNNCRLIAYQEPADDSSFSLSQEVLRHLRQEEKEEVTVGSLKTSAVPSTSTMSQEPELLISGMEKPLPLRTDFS

This test addresses T1, STING (Homo sapiens, UniProt Q86WV6, G230A/H232R/R293Q/R71H).
T1 construct: host or cells: THP1-Dual KO-IFNAR2 cells
Kind of test: STING reporter assay: luciferase reporter activity in THP1-Dual KO-IFNAR2 cells stimulated with 2′3′cGAMP. Particulars: 15 μM 2′3′cGAMP, 24h, read-out: hSTING EC50. Type of test: cell-based. Summed up: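 THP1-Dual KO-IFNAR2 cells (2×10E6 cells/mL) were exposed to compounds at 0.0017-100 μM, then stimulated with 2′3′cGAMP (15 μM final) transfected via Lipofectamine 2000. After 24h at 37° C., secreted luciferase in supernatant was read by QUANTI-Luc luminescence; EC50 derived from concentration-response.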
(Reporter assays use an easily measured gene product as a stand-in for the process of interest.)
Broadly, the EC50 is the concentration needed to bring the measured effect to its halfway point. For the compound `Cn1ccnc1C(=O)Nc1c[nH]c2ccc(-c3cnn(-c4ccc(C(F)(F)F)cc4)c3)cc12` [Compound 269, 1-methyl-N-(5-(1-(4-(trifluoromethyl)phenyl)-1H-pyrazol-4-yl)-1H-indol-3-yl)-1H-imidazole-2-carboxamide], the EC50 fell in the range of 1000 to 5000 nM.
On to `Cc1nc(C(=O)Nc2c[nH]c3ccc(-c4cnn(-c5ccc(C(F)(F)F)cc5)c4)cc23)co1` [Compound 270, 2-methyl-N-(5-(1-(4-(trifluoromethyl)phenyl)-1H-pyrazol-4-yl)-1H-indol-3-yl)oxazole-4-carboxamide], for which the EC50 fell in the range of 200 to 1000 nM.
Regarding `Cc1cc(C(=O)Nc2c[nH]c3ccc(-c4cnn(-c5ccc(C(F)(F)F)cc5)c4)cc23)on1` [Compound 271, 3-methyl-N-(5-(1-(4-(trifluoromethyl)phenyl)-1H-pyrazol-4-yl)-1H-indol-3-yl)isoxazole-5-carboxamide], the EC50 was 200 to 1000 nM.
Take `O=C(Nc1c[nH]c2ccc(-c3cnn(-c4ccc(C(F)(F)F)cc4)c3)cc12)c1ncco1` [Compound 272, N-(5-(1-(4-(trifluoromethyl)phenyl)-1H-pyrazol-4-yl)-1H-indol-3-yl)oxazole-2-carboxamide]: the EC50 fell in the range of 1000 to 5000 nM.
Take `O=C(Nc1c[nH]c2ccc(-c3cnn(-c4ccc(C(F)(F)F)cc4)c3)cc12)c1nccs1` [Compound 273, N-(5-(1-(4-(trifluoromethyl)phenyl)-1H-pyrazol-4-yl)-1H-indol-3-yl)thiazole-2-carboxamide]: the EC50 lay within 1000 to 5000 nM.
Consider `Cc1cc(C(=O)Nc2c[nH]c3ccc(-c4cnn(-c5ccc(C(F)(F)F)cc5)c4)cc23)no1` [Compound 274, 5-methyl-N-(5-(1-(4-(trifluoromethyl)phenyl)-1H-pyrazol-4-yl)-1H-indol-3-yl)isoxazole-3-carboxamide], for which the EC50 was in the range of 200 to 1000 nM.
Consider `O=C(Nc1c[nH]c2ccc(-c3cnn(-c4ccc(C(F)(F)F)cc4)c3)cc12)c1cscn1` [Compound 275, N-(5-(1-(4-(trifluoromethyl)phenyl)-1H-pyrazol-4-yl)-1H-indol-3-yl)thiazole-4-carboxamide], for which the EC50 was 1000 to 5000 nM.
Consider `Cn1ccc(C(=O)Nc2c[nH]c3ccc(-c4cnn(-c5ccc(C(F)(F)F)cc5)c4)cc23)n1` [Compound 276, 1-methyl-N-(5-(1-(4-(trifluoromethyl)phenyl)-1H-pyrazol-4-yl)-1H-indol-3-yl)-1H-pyrazole-3-carboxamide], for which the EC50 was 200 to 1000 nM.
For the compound `O=C(Nc1c[nH]c2ccc(-c3cnn(-c4ccc(C(F)(F)F)cc4)c3)cc12)c1cnoc1` [Compound 277, N-(5-(1-(4-(trifluoromethyl)phenyl)-1H-pyrazol-4-yl)-1H-indol-3-yl)isoxazole-4-carboxamide], the EC50 was 5000 to 100000 nM.
In the case of `Cn1cc(C(=O)Nc2c[nH]c3ccc(-c4cnn(-c5ccc(C(F)(F)F)cc5)c4)cc23)cn1` [Compound 278, 1-methyl-N-(5-(1-(4-(trifluoromethyl)phenyl)-1H-pyrazol-4-yl)-1H-indol-3-yl)-1H-pyrazole-4-carboxamide] it was 200 to 1000 nM; in that of `Cn1cc(C(=O)Nc2c[nH]c3ccc(-c4cnn(-c5ccc(C(F)(F)F)cc5)c4)cc23)nn1` [Compound 279, 1-methyl-N-(5-(1-(4-(trifluoromethyl)phenyl)-1H-pyrazol-4-yl)-1H-indol-3-yl)-1H-1,2,3-triazole-4-carboxamide], 200 to 1000 nM.
Take `O=C(Nc1c[nH]c2ccc(-c3cnn(-c4ccc(C(F)(F)F)cc4)c3)cc12)c1ccon1` [Compound 280, N-(5-(1-(4-(trifluoromethyl)phenyl)-1H-pyrazol-4-yl)-1H-indol-3-yl)isoxazole-3-carboxamide]: the EC50 was 200 to 1000 nM.
In the case of `Cn1cnc(C(=O)Nc2c[nH]c3ccc(-c4cnn(-c5ccc(C(F)(F)F)cc5)c4)cc23)c1` [Compound 281, 1-methyl-N-(5-(1-(4-(trifluoromethyl)phenyl)-1H-pyrazol-4-yl)-1H-indol-3-yl)-1H-imidazole-4-carboxamide] it was 1000 to 5000 nM; in that of `O=C(Nc1c[nH]c2ccc(-c3cnn(-c4ccc(C(F)(F)F)cc4)c3)cc12)c1ccc(=O)[nH]n1` [Compound 282, 6-oxo-N-(5-(1-(4-(trifluoromethyl)phenyl)-1H-pyrazol-4-yl)-1H-indol-3-yl)-1,6-dihydropyridazine-3-carboxamide], 1000 to 5000 nM; in that of `CC(C)n1cc(C(=O)Nc2c[nH]c3ccc(-c4cnn(-c5ccc(C(F)(F)F)cc5)c4)cc23)nn1` [Compound 283, 1-isopropyl-N-(5-(1-(4-(trifluoromethyl)phenyl)-1H-pyrazol-4-yl)-1H-indol-3-yl)-1H-1,2,3-triazole-4-carboxamide], 200 to 1000 nM.
The figure for `O=C(Nc1c[nH]c2ccc(-c3cnn(-c4ccc(C(F)(F)F)cc4)c3)cc12)[C@@H]1CC(F)(F)CN1` [compound 184, (S)-4,4-difluoro-N-(5-(1-(4-(trifluoromethyl)phenyl)-1H-pyrazol-4-yl)-1H-indol-3-yl)pyrrolidine-2-carboxamide] is 5000 to 100000 nM.
